Measurements reported in ChEMBL document CHEMBL1201862, “PubChem BioAssay data set” (2004).
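Following 48 hours of exposure in 96-well plates, responses at five concentrations were used to interpolate endpoints linearly. The concentration for 50% growth inhibition is given as GI50.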 Activity calls are given as the source filed them. No stated cut-off is given here; in the data, active = GI50 up to about 1.1 µM and inactive = higher. Residues, ends and D or L forms follow the SMILES beside them. *: point of attachment. OBn = c1ccc(CO*)cc1

What was measured:
Assay in all cases: inhibition of tumour cell growth, NCI panel, 48 h
[1] = test system: SNB-19
[2] = test system: SF-295
[3] = test system: ACHN
[4] = test system: UO-31
[5] = test system: HCT-116
[6] = test system: HL-60
[7] = test system: MDA-MB-435
[8] = test system: NCI-H226
[9] = test system: HT-29
[10] = test system: SK-MEL-28
[11] = test system: SN12C
[12] = test system: EKVX
[13] = test system: MDA-MB-231
[14] = test system: OVCAR-8
[15] = test system: TK-10
[16] = test system: KM12
[17] = test system: PC-3
[18] = test system: SNB-75
[19] = test system: SF-539
[20] = test system: A498

Row | Structure (SMILES) | GI50 [1] | GI50 [2] | GI50 [3] | GI50 [4] | GI50 [5] | GI50 [6] | GI50 [7] | GI50 [8] | GI50 [9] | GI50 [10] | GI50 [11] | GI50 [12] | GI50 [13] | GI50 [14] | GI50 [15] | GI50 [16] | GI50 [17] | GI50 [18] | GI50 [19] | GI50 [20]
1 | NC(CCC(=O)OCc1ccccc1)C(=O)NC(CCC(=O)OCc1ccccc1)C(=O)O (centres undefined) (H-Glu(OBn)-Glu(OBn)-OH; configuration not given here) | > 100 µM (inactive) | > 100 µM (inactive) | > 100 µM (inactive) | > 100 µM (inactive) | > 100 µM (inactive) | > 100 µM (inactive) | > 100 µM (inactive) | > 100 µM (inactive) | > 100 µM (inactive) | > 100 µM (inactive) | > 100 µM (inactive) | > 100 µM (inactive) | > 100 µM (inactive) | > 100 µM (inactive) | > 100 µM (inactive) | > 100 µM (inactive) | > 100 µM (inactive) | > 100 µM (inactive) |  | 
2 | COc1ccc(/C=C2\N=C(N3CCCCC3)NC2=O)cc1 | > 100 µM (inactive) | > 100 µM (inactive) | > 100 µM (inactive) | 48.3 µM (inactive) | > 100 µM (inactive) | > 100 µM (inactive) | > 100 µM (inactive) | > 100 µM (inactive) | > 100 µM (inactive) | > 100 µM (inactive) | > 100 µM (inactive) | > 100 µM (inactive) | > 100 µM (inactive) | > 100 µM (inactive) | > 100 µM (inactive) | 52.1 µM (inactive) | > 100 µM (inactive) | 37.2 µM (inactive) | 54 µM (inactive) | 
3 | Cc1ccc([S+]([O-])C[C@@]2(C(F)F)NC(=O)NC2=O)cc1 (some centres undefined) | > 100 µM (inactive) | > 100 µM (inactive) | > 100 µM (inactive) | > 100 µM (inactive) | > 100 µM (inactive) | > 100 µM (inactive) | > 100 µM (inactive) | > 100 µM (inactive) | > 100 µM (inactive) | > 100 µM (inactive) |  | > 100 µM (inactive) | > 100 µM (inactive) | > 100 µM (inactive) | > 100 µM (inactive) | > 100 µM (inactive) | > 100 µM (inactive) | > 100 µM (inactive) |  | > 100 µM (inactive)
4 | O=C(NCCCc1cn[nH]c(=O)n1)c1cccc2nc3ccccc3nc12 | > 100 µM (inactive) | 31.7 µM (inactive) | 31.6 µM (inactive) |  | 42 µM (inactive) | > 100 µM (inactive) | > 100 µM (inactive) | > 100 µM (inactive) | > 100 µM (inactive) | > 100 µM (inactive) | 86.3 µM (inactive) | > 100 µM (inactive) | 27.8 µM (inactive) | 61.9 µM (inactive) | 36.5 µM (inactive) | > 100 µM (inactive) | > 100 µM (inactive) |  | > 100 µM (inactive) | > 100 µM (inactive)
5 | CC1=C(C(=O)OC(C)C)C(c2ccccc2[N+](=O)[O-])C(C(=O)OC(CO[N+](=O)[O-])CO[N+](=O)[O-])=C(C)N1 (centres undefined) | 3.44 µM (inactive) | 2.1 µM (inactive) | 3.21 µM (inactive) | 3.56 µM (inactive) | 2.55 µM (inactive) | 6.25 µM (inactive) | 3.48 µM (inactive) | 7.16 µM (inactive) | 2.81 µM (inactive) | 4.01 µM (inactive) | 3.8 µM (inactive) | 2.85 µM (inactive) | 5.68 µM (inactive) | 3.28 µM (inactive) | 6.27 µM (inactive) | 3.75 µM (inactive) | 2.14 µM (inactive) | 1.54 µM (inactive) | 3.18 µM (inactive) | 
6 | COc1ccc(NC2=CC(=O)C(=O)c3ccccc32)nn1 | 2.9 µM (inactive) | 0.822 µM (active) | 1.66 µM (inactive) | 2.5 µM (inactive) |  | 0.273 µM (active) | 0.197 µM (active) | 2.31 µM (inactive) | 1.64 µM (inactive) | 1.08 µM (active) | 1.6 µM (inactive) | 3.1 µM (inactive) | 3.69 µM (inactive) | 1.67 µM (inactive) | 3.56 µM (inactive) | 0.361 µM (active) | 2.73 µM (inactive) |  | 0.902 µM (active) | 1.73 µM (inactive)
7 | C[C@]12CC(c3ccccc3O1)C(C(N)=O)C(=O)N2 (some centres undefined) | > 100 µM (inactive) |  | > 100 µM (inactive) |  | > 100 µM (inactive) | > 100 µM (inactive) | > 100 µM (inactive) | > 100 µM (inactive) | > 100 µM (inactive) | > 100 µM (inactive) | > 100 µM (inactive) | > 100 µM (inactive) | > 100 µM (inactive) | > 100 µM (inactive) |  | > 100 µM (inactive) | > 100 µM (inactive) | > 100 µM (inactive) |  | > 100 µM (inactive)
8 | CC(=O)c1cc2ccccc2[n+]([O-])c1N |  | > 100 µM (inactive) | > 100 µM (inactive) |  | > 100 µM (inactive) | > 100 µM (inactive) | > 100 µM (inactive) | > 100 µM (inactive) | > 100 µM (inactive) | > 100 µM (inactive) | > 100 µM (inactive) | > 100 µM (inactive) | > 100 µM (inactive) | > 100 µM (inactive) | > 100 µM (inactive) | > 100 µM (inactive) | > 100 µM (inactive) |  | > 100 µM (inactive) | > 100 µM (inactive)
9 | O=C(CN1CCCC1)Nc1ccc2c(c1)C1Oc3ccccc3CC1CO2 (centres undefined) |  | 20.5 µM (inactive) |  | 22.1 µM (inactive) | 33 µM (inactive) | 46.6 µM (inactive) | 22.2 µM (inactive) | > 100 µM (inactive) | > 10 µM (inactive) |  | > 100 µM (inactive) | 69.3 µM (inactive) | 22.9 µM (inactive) | 97.5 µM (inactive) | 49 µM (inactive) | 43.4 µM (inactive) | 24.8 µM (inactive) |  | 18.8 µM (inactive) | > 100 µM (inactive)
10 | NC(=O)c1cc2ccc(O)cc2o/c1=N/NC(=O)c1ccccc1 | > 100 µM (inactive) | > 100 µM (inactive) | 58.1 µM (inactive) | 67 µM (inactive) | 66.2 µM (inactive) | 61 µM (inactive) | 74.3 µM (inactive) | 39.4 µM (inactive) | > 100 µM (inactive) | 76.4 µM (inactive) | 63.7 µM (inactive) | > 100 µM (inactive) | 80.5 µM (inactive) | 67.8 µM (inactive) | 36.1 µM (inactive) | 77.1 µM (inactive) | 83.2 µM (inactive) | 25.9 µM (inactive) |  | 40.5 µM (inactive)
11 | O=C(O)c1ccc(C(c2c(O)oc3ccccc3c2=O)c2c(O)oc3ccccc3c2=O)cc1 | > 100 µM (inactive) | > 100 µM (inactive) | > 100 µM (inactive) | 14.2 µM (inactive) | > 100 µM (inactive) | 0.0397 µM (active) | > 100 µM (inactive) |  | > 100 µM (inactive) | 15.2 µM (inactive) | > 100 µM (inactive) |  | > 100 µM (inactive) | > 100 µM (inactive) |  | > 100 µM (inactive) | > 100 µM (inactive) |  | > 100 µM (inactive) | 2.92 µM (inactive)
12 | O=c1c2ccccc2nnn1-c1n[nH]c2ccccc12 | > 100 µM (inactive) | > 100 µM (inactive) | > 100 µM (inactive) | > 100 µM (inactive) | > 100 µM (inactive) |  | > 100 µM (inactive) |  | 63.4 µM (inactive) | > 100 µM (inactive) | > 100 µM (inactive) | > 100 µM (inactive) | > 100 µM (inactive) |  | > 100 µM (inactive) | > 100 µM (inactive) | > 100 µM (inactive) | > 100 µM (inactive) | > 100 µM (inactive) | > 100 µM (inactive)
13 | Brc1ccc(C2(N3CCCCC3)CCCCC2)s1 | 73.1 µM (inactive) | 35.6 µM (inactive) | 51.1 µM (inactive) | 30.8 µM (inactive) | > 100 µM (inactive) | 19.4 µM (inactive) | 23.9 µM (inactive) |  | 23.5 µM (inactive) |  | > 100 µM (inactive) | 76.6 µM (inactive) | 32 µM (inactive) |  | 37.5 µM (inactive) | 28.4 µM (inactive) | 34.1 µM (inactive) |  |  | 66.7 µM (inactive)
14 | O=[N+]([O-])/C=C/c1cn(CCCCCn2cc(/C=C/[N+](=O)[O-])c3ccccc32)c2ccccc12 | 6.73 µM (inactive) | 9.89 µM (inactive) | 4.66 µM (inactive) | 3.64 µM (inactive) | 0.283 µM (active) | 0.787 µM (active) | 0.953 µM (active) | 0.805 µM (active) | 1.56 µM (inactive) | 1.12 µM (active) | 3.16 µM (inactive) | 11.6 µM (inactive) | 1.95 µM (inactive) | 3.27 µM (inactive) | 1.82 µM (inactive) | 1.69 µM (inactive) | 3.58 µM (inactive) |  | 1.88 µM (inactive) | 1.94 µM (inactive)
15 | Cc1cc(=O)n2nc(CN3CCCCC3)sc2n1 | > 100 µM (inactive) | > 100 µM (inactive) | > 100 µM (inactive) | > 100 µM (inactive) | > 100 µM (inactive) | > 100 µM (inactive) | > 100 µM (inactive) | > 100 µM (inactive) | > 100 µM (inactive) | > 100 µM (inactive) | > 100 µM (inactive) | > 100 µM (inactive) | > 100 µM (inactive) | > 100 µM (inactive) | > 100 µM (inactive) | > 100 µM (inactive) | > 100 µM (inactive) | 54.5 µM (inactive) | > 100 µM (inactive) | 
